Patent US4283408A, “Guanidinothiazole compounds, process for preparation and gastric inhibiting compositions containing them” (Yamanouchi Pharmaceutical Co., Ltd., priority 1979, dated 1981)

Experiments:
[1] = tested on: Gastric acid secretion; test: Gastric acid secretion in anesthetized dogs (histamine-induced); type: in vivo, Mongrel dogs; conditions: Canis lupus familiaris, iv, read-out: (A) Gastric secretion ED50
Method: (i) Gastric acid secretion in anesthetized dogs: Mongrel dogs weighing 8 to 15 Kg were deprived of food for 24 hr and anesthetized intravenously with pentobarbital (30 mg/Kg). […] The gastric juice was collected from the gastric cannula by gravity drainage every 15 min. Test compounds were given intravenously after gastric secretion induced by a continuous intravenous infusion of histamine (160 μg/Kg-hr) reached a steady state.

[2] = Acute toxicity in mice; conditions: mouse, in vivo, iv; male ICR mice; i.v.; 7 days observation; up and down method; base; read-out: (C) LD50 in mice
Method: (iii) Acute toxicity in mice
Drugs were injected intravenously in male ICR mice weighing about 35 g at a rate of 0.1 ml/10 sec and the animals were kept under observation for 7 days. LD50 values were determined by up and down method using 10 animals. The data are shown in Table I, under column entitled (C).

[3] = tested on: Gastric acid secretion; test: Gastric acid secretion in pylorus-ligated rats; type: in vivo, Male Wister rats; conditions: Rattus norvegicus, read-out: (B) Pylorus-ligated rats ED50
Method: (ii) Gastric acid secretion in pylorus-ligated rats
Male Wister rats weighing about 200 g were deprived of food for 24 hr but allowed free access to water prior to the experiments in individual cages. […] Test compounds were intraduodenally given immediately after the ligation of pylorus. The animals were sacrificed 4 hr after drug administration and gastric contents were collected. […] The percent inhibition of gastric secretion by each dose of drugs was calculated from the acid outputs of control and of treated groups. ED50 values were determined by the probit method.

[4] = tested on: H2 -receptor; conditions: isolated guinea pig atrium; effects mediated by the H2 -receptor; Ash and Schild, Black et al.; cited from earlier work
[5] = anesthetized dogs, i.v., histamine infusion 160 μg/Kg-hr, dose producing 50% inhibition of the acid output, base
[6] = pylorus-ligated rats, intraduodenal, 4 hr, probit method, base

Compound	ED50 [1] [mg/kg]	LD50 at 168 h [2] [mg/kg]	ED50 ([3]; 4 h) [mg/kg]	ED50 [1, 5] [mg/kg]	ED50 [3, 6] [mg/kg]	inhibition of histamine effects on gastric acid secretion and heart rate [4]
CN/C(=N/CCSCc1nc[nH]c1C)NC#N [Compound A, Ncyano-Nmethyl-N{2[(4methyl-5-imidazolyl)methylthio]ethyl}guanidine]	0.333 ± 0.042	152	42.6	–	–	–
N#CN=C(N)NCCSCc1csc(NC(=N)N)n1 [Compound B, 2guanidino-4-[2(2-cyanoguanidino)ethylthiomethyl]thiazole]	–	94.6	–	0.0352 ± 0.0022	49.3	–
NC(N)=Nc1nc(CSCCC(N)=NS(N)(=O)=O)cs1 [Example 1, N-sulfamoyl-3-[(2-guanidinothiazol-4-yl)methylthio]propionamidine]	–	244	–	0.0087 ± 0.0005	0.87	–
CS(=O)(=O)NC(=N)CCSCc1csc(NC(=N)N)n1 [Example 2, N-methanesulfonyl-3-[(2-guanidinothiazol-4-yl)-methylthio]propionamidine]	–	152	–	0.0191 ± 0.0026	8.9	–
COc1ccc(CN(CCN(C)C)c2ccccn2)cc1 [mepyramine]	–	–	–	–	–	not inhibited
C/N=C(\S)NCCSCc1[nH]cnc1C [metiamide]	–	–	–	–	–	antagonized
